# pEC50, pIC50: −log10 of the molar value. Activity calls are given as the source filed them. The rule behind the calls is not given here.
# Columns and labels:
# Rattus norvegicus [1] = test: Toxicity in Zucker rat sub-chronic fa/fa prediabetic model assessed as serum triglyceride level at 10 mg/kg, po qd for 31 days measured on day 32 (reference value: 1382 +/- 268 mg/dl); type: organism-based; conditions: in vivo, 744 h
# Rattus norvegicus [2] = test: Toxicity in […] model assessed as serum AST level at 3 mg/kg, po qd for 31 days measured on day 32 (reference value: 180 +/- 26 U/L); type: organism-based; conditions: in vivo, 744 h
# [3] = Cmax in […] chronic ob/ob model at 50 mg/kg, po qd measured on day 1 post dose; type: ADME, organism-based; set-up: dose 50 mg/kg, route oral; conditions: in vivo
# [4] = Tmax in Sprague-Dawley rat at 10 mg/kg administered via oral gavage by LC-MS analysis; type: ADME, organism-based; conditions: in vivo
# Rattus norvegicus [5] = test: Toxicity in Zucker rat sub-chronic fa/fa prediabetic model assessed as liver weight at 10 mg/kg, po qd for 31 days measured on day 32 (reference value: 28 +/- 1.6 g); type: organism-based; conditions: in vivo, 744 h
# Rattus norvegicus [6] = test: Antidiabetic activity in Zucker rat sub-chronic fa/fa prediabetic model assessed as increase in serum adiponectin level administered orally once daily for 32 days by ELISA; type: functional, organism-based
# Rattus norvegicus [7] = test: Antidiabetic activity in […] model assessed as HbA1C level at 3 mg/kg, po qd for 31 days measured on day 32 post dose (reference value: 5.9 +/- 0.18%); type: functional
# Rattus norvegicus [8] = test: Effect on IGFBP6 gene expression in epididymal white adipose tissue of Zucker rat sub-chronic fa/fa prediabetic model at 10 mg/kg, po qd for 15 days by microarray analysis relative to control; type: functional
# Rattus norvegicus [9] = test: Toxicity in […] model assessed as serum BUN level at 50 mg/kg, po qd for 31 days measured on day 32 (reference value: 28.3 +/- […]); type: organism-based; conditions: in vivo, 744 h
# [10] = target: Peroxisome proliferator-activated receptor alpha (Homo sapiens, UniProt Q07869); test: Antagonist activity at recombinant GST-tagged human PPARalpha LBD assessed as inhibition of GW7647-induced fluorescein-labeled coactivator peptide recruitment preincubated with enzyme followed by coactivator addition by LanthaScreen TR-FRET assay
# Rattus norvegicus [11] = test: Toxicity in Zucker rat sub-chronic fa/fa prediabetic model assessed as epididymal white adipose tissue weight at 3 mg/kg, po qd for 31 days measured on day 32 (reference value: 13.9 +/- 0.6 g); type: organism-based; conditions: in vivo, 744 h
# Rattus norvegicus [12] = test: Effect on ACAT1 gene expression in epididymal white adipose tissue of Zucker rat sub-chronic fa/fa prediabetic model at 10 mg/kg, po qd for 15 days by microarray analysis relative to control; type: functional
# Rattus norvegicus [13] = test: Increase in ACADM mRNA expression in epididymal white adipose tissue of Zucker rat sub-chronic fa/fa prediabetic model at 10 mg/kg, po qd for 15 days by RT-PCR method; type: functional, organism-based
# Rattus norvegicus [14] = test: Effect on NDUFS1 gene expression in epididymal white adipose tissue of Zucker rat sub-chronic fa/fa prediabetic model at 10 mg/kg, po qd for 15 days by microarray analysis relative to control; type: functional
# [15] = Tmax in […] at 15 mg/kg administered via oral gavage by LC-MS analysis; type: ADME, organism-based; conditions: in vivo
# Rattus norvegicus [16] = test: Effect on PLCB1 gene expression in epididymal white adipose tissue of Zucker rat sub-chronic fa/fa prediabetic model at 10 mg/kg, po qd for 15 days by microarray analysis relative to control; type: functional
# Estrogen receptor beta = Estrogen receptor beta (Homo sapiens, UniProt Q92731); test: Inhibition of fluormone ES2 binding to recombinant full length human ERbeta expressed in insect cells by fluorescence polarization assay
# [17] = Cmax in […] chronic ob/ob model at 50 mg/kg, po qd for 28 days measured on day 28 post last dose; type: ADME, organism-based; set-up: dose 50 mg/kg, route oral; conditions: in vivo
# Rattus norvegicus [18] = test: Toxicity in Zucker rat sub-chronic fa/fa prediabetic model assessed as serum AST level at 1 mg/kg, po qd for 31 days measured on day 32 (reference value: 187 +/- 37 U/L); type: organism-based; conditions: in vivo, 744 h
# Rattus norvegicus [19] = test: Effect on NR1H3 gene expression in epididymal white adipose tissue of Zucker rat sub-chronic fa/fa prediabetic model at 10 mg/kg, po qd for 15 days by microarray analysis relative to control; type: functional
# [20] = target: Oxysterols receptor LXR-beta (Homo sapiens, UniProt P55055); test: Antagonist activity at recombinant GST-tagged human LXRbeta LBD assessed as inhibition of TO901317-induced fluorescein-labeled coactivator peptide recruitment preincubated with enzyme followed by coactivator addition by LanthaScreen TR-FRET assay
# Rattus norvegicus [21] = test: Toxicity in Zucker rat sub-chronic fa/fa prediabetic model assessed as serum creatinine level at 3 mg/kg, po qd for 31 days measured on day 32 (reference value: 0.71 +/- 0.07 mg/dl); type: organism-based; conditions: in vivo, 744 h
# Rattus norvegicus [22] = test: Effect on HADHB gene expression in epididymal white adipose tissue of Zucker rat sub-chronic fa/fa prediabetic model at 10 mg/kg, po qd for 15 days by microarray analysis relative to control; type: functional
# Rattus norvegicus [23] = species: Rattus norvegicus; test: Toxicity in Zucker rat sub-chronic fa/fa prediabetic model assessed as increase in epididymal white adipose tissue weight during 15 day single dose study; type: organism-based; conditions: in vivo, 360 h
# Rattus norvegicus [24] = test: Decrease in fed plasma triglyceride level in Zucker rat sub-chronic fa/fa prediabetic model assessed as change in plasma triglyceride level at 10 mg/kg, po qd for 4 days measured on day 5 relative to control; type: functional; set-up: scale not given: the % may be the effect or the level left
# Rattus norvegicus [25] = test: Toxicity in […] model assessed as liver weight at 10 mg/kg, po qd for 31 days measured on day 32 (reference value: 2.77 +/- 0.16 g); type: organism-based; conditions: in vivo, 744 h
# [26] = AUC (0 to 24 hrs) in Zucker rat sub-chronic fa/fa prediabetic model at 10 mg/kg, po qd for 26 days measured on day 26 post last dose; type: ADME, organism-based; set-up: dose 10 mg/kg, time < 24 hr, route oral; conditions: in vivo
# Homo sapiens = species: Homo sapiens; test: Inhibition of picrotoxin binding to chloride channel (unknown origin) at 10 uM relative to control
# Rattus norvegicus [27] = test: Effect on ADRA2C gene expression in epididymal white adipose tissue of Zucker rat sub-chronic fa/fa prediabetic model at 10 mg/kg, po qd for 15 days by microarray analysis relative to control; type: functional
# Rattus norvegicus [28] = test: Antidiabetic activity in Zucker rat sub-chronic fa/fa prediabetic model assessed as blood glucose AUC (0 to 120 min) at 3 mg/kg, po qd for 31 days measured on day 29 post dose by OGTT (reference value: 41471 +/- 2451 mg.min/dL); type: functional
# Rattus norvegicus [29] = test: Effect on PTGS2 gene expression in epididymal white adipose tissue of Zucker rat sub-chronic fa/fa prediabetic model at 10 mg/kg, po qd for 15 days by microarray analysis relative to control; type: functional
# [30] = target: Retinoic acid receptor beta (Homo sapiens, UniProt P10826); test: Agonist activity at recombinant GST-tagged human RARbeta LBD assessed as fluorescein-labeled coactivator peptide recruitment preincubated with enzyme followed by coactivator addition by LanthaScreen TR-FRET assay
# Rattus norvegicus [31] = test: Effect on HMGCS1 gene expression in epididymal white adipose tissue of Zucker rat sub-chronic fa/fa prediabetic model at 10 mg/kg, po qd for 15 days by microarray analysis relative to control; type: functional
# Peroxisome proliferator-activated receptor alpha, sequence (Q07869 whole entry, the tested form may be a part): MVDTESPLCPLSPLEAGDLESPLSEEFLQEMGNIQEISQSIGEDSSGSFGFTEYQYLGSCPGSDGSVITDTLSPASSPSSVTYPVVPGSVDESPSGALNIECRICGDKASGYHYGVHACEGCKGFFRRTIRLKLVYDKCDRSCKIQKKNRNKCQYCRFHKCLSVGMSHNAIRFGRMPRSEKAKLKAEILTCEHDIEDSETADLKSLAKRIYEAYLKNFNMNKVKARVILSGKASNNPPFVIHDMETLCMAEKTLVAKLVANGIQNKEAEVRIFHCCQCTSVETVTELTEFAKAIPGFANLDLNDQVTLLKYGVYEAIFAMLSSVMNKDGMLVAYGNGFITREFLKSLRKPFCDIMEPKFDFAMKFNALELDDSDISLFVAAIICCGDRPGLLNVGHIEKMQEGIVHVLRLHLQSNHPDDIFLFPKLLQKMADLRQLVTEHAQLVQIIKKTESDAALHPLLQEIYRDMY
# Retinoic acid receptor beta, sequence (P10826 whole entry, the tested form may be a part): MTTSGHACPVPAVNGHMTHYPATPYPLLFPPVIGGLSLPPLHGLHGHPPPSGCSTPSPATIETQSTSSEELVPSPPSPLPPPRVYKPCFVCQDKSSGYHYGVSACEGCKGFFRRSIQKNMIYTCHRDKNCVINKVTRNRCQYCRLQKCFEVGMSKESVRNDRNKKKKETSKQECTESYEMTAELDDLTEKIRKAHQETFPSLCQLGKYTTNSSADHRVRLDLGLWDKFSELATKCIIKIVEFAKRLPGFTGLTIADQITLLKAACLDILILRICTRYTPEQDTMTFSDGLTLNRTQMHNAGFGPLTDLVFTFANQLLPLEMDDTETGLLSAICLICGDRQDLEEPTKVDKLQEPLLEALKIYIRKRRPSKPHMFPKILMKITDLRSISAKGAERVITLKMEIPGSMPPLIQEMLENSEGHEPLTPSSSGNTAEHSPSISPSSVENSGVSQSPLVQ
# Oxysterols receptor LXR-beta, sequence (P55055 whole entry, the tested form may be a part): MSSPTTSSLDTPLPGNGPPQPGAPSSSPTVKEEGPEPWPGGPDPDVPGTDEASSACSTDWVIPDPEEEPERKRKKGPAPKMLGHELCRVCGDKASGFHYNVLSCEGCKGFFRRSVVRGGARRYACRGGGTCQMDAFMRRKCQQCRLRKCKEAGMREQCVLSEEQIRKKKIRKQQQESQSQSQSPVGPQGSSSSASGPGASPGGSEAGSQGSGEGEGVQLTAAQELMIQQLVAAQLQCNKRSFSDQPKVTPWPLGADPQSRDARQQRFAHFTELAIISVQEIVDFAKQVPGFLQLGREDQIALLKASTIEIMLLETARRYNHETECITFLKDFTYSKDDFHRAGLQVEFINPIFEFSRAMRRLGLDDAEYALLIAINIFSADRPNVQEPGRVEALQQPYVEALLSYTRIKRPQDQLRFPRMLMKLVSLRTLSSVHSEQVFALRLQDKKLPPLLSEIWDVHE
# Estrogen receptor beta, sequence (Q92731 whole entry): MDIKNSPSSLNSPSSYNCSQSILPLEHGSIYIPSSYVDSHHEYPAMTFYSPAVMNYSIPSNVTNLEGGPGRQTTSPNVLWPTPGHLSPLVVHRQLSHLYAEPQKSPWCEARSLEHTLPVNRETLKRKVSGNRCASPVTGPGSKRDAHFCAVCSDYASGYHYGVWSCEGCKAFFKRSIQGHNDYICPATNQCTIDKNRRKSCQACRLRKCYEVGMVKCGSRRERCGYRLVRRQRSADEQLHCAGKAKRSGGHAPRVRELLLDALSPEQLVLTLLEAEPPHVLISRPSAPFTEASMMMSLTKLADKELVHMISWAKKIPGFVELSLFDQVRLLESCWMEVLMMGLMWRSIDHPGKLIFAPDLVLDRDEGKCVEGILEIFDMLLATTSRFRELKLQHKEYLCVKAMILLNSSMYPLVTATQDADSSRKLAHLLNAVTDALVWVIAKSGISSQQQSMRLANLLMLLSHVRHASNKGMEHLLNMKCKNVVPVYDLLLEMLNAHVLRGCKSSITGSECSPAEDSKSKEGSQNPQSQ
structure (smiles),measurement,setting,value
CN1CC[C@@H](N2C(=O)S/C(=C\c3ccc4c(cnn4Cc4ccc(Cl)cc4C(F)(F)F)c3)C2=O)[C@H](F)C1,Activity,Rattus norvegicus [1],341 mg/dL
same,Activity,Rattus norvegicus [2],211 U/L
same,Cmax,[3],2680 ng/mL
same,Tmax,[4],1.5 h
same,Activity,Rattus norvegicus [5],18.5 g
same,Activity,Rattus norvegicus [6],Dose-dependent effect
same,Activity,Rattus norvegicus [7],5.7%
same,fold change (FC),Rattus norvegicus [8],-1.269
same,Activity,Rattus norvegicus [9],29.5 mg/dL
same,pIC50,[10],< 5.00
same,Activity,Rattus norvegicus [11],17.8 g
same,fold change (FC),Rattus norvegicus [12],1.634
same,Activity,Rattus norvegicus [13],Active
same,fold change (FC),Rattus norvegicus [14],1.561
same,Tmax,[15],2.5 h
same,fold change (FC),Rattus norvegicus [16],1.58
same,pIC50,Estrogen receptor beta,< 5.00
same,Cmax,[17],1680 ng/mL
same,Activity,Rattus norvegicus [18],158 U/L
same,fold change (FC),Rattus norvegicus [19],1.389
same,pIC50,[20],< 5.00
same,Activity,Rattus norvegicus [21],0.56 mg/dL
same,fold change (FC),Rattus norvegicus [22],1.349
same,Activity,Rattus norvegicus [23],Non-Toxic
same,Activity,Rattus norvegicus [24],-68%
same,Activity,Rattus norvegicus [25],2.67 g
same,AUC at 24 h,[26],23900 ng·h/mL
same,inhibition,Homo sapiens,50%
same,fold change (FC),Rattus norvegicus [27],-1.52
same,Activity,Rattus norvegicus [28],26306 mg·min/dL
same,fold change (FC),Rattus norvegicus [29],-1.389
same,pEC50,[30],< 5.00
same,fold change (FC),Rattus norvegicus [31],-1.387
